# PubChem BioAssay (NCI)
#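 Five concentrations, 48 hours, 96-well plates. TGI denotes the concentration required for complete inhibition of growth.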
# Legend:
# Assay in all cases: DTP human tumour cell line panel, 48 h
# HOP-92 NSCLC = tested on: HOP-92 NSCLC
# NCI-H23 lung = tested on: NCI-H23 lung
# T-47D breast = tested on: T-47D breast
# EKVX NSCLC = tested on: EKVX NSCLC
# NCI/ADR-RES ovarian = tested on: NCI/ADR-RES ovarian
# M14 melanoma = tested on: M14 melanoma
# NCI-H226 lung = tested on: NCI-H226 lung
# IGROV1 ovarian = tested on: IGROV1 ovarian
# HT29 colon = tested on: HT29 colon
# MDA-MB-435 = tested on: MDA-MB-435
Structure (SMILES),TGI (HOP-92 NSCLC),TGI (NCI-H23 lung),TGI (T-47D breast),TGI (EKVX NSCLC),TGI (NCI/ADR-RES ovarian),TGI (M14 melanoma),TGI (NCI-H226 lung),TGI (IGROV1 ovarian),TGI (HT29 colon),TGI (MDA-MB-435)
CCCCCC(/C=N/NC(N)=S)C(O)(C(F)(F)F)C(F)(F)F (stereo not given),> 10 µM,> 10 µM,> 10 µM,> 10 µM,> 10 µM,> 10 µM,> 10 µM,> 10 µM,> 10 µM,> 10 µM
C(/C=N/NC1=NCCN1)=N\NC1=NCCN1,> 100 µM,> 100 µM,> 100 µM,> 100 µM,> 100 µM,> 100 µM,> 100 µM,> 100 µM,> 100 µM,> 100 µM
COc1cccc2c1C(=O)c1ccc3cc(CO)cc(O)c3c1C2=O,2.84 µM,1.18 µM,4.96 µM,4.89 µM,2.28 µM,1.68 µM,5.54 µM,3.33 µM,3.9 µM,0.359 µM
NNC(=O)CCCCCCCC(=O)O,> 100 µM,> 100 µM,> 100 µM,> 100 µM,> 100 µM,> 100 µM,> 100 µM,> 100 µM,> 100 µM,> 100 µM
COc1cc(/C=C/C(=O)O)ccc1O,> 100 µM,> 100 µM,> 100 µM,> 100 µM,> 100 µM,> 100 µM,> 100 µM,> 100 µM,> 100 µM,> 100 µM
COc1ccc(C2c3cc4c(cc3OC(N3CCOCC3)C2C)OCO4)c(OC)c1 (stereo not given),15.9 µM,> 67.9 µM,> 54.8 µM,> 85.3 µM,9.68 µM,21.2 µM,14.4 µM,> 100 µM,13.2 µM,8.83 µM
O=C1NC(N/N=C/C(O)C(O)C(O)C(O)CO)=N/C1=C\c1cccs1 (stereo not given),> 100 µM,> 100 µM,> 100 µM,> 100 µM,> 100 µM,> 100 µM,> 100 µM,> 100 µM,> 100 µM,> 100 µM
CCOC(=O)CC[C@@H](NC(=O)c1ccc(NCc2ccc3nc(OC)c(OC)nc3c2)cc1)C(=O)OCC,36.2 µM,> 100 µM,58.3 µM,> 100 µM,> 100 µM,32 µM,> 100 µM,56.7 µM,> 100 µM,99.2 µM
COc1ccc(NC(C)=O)c(C(=O)CCNC(C)=O)c1,> 100 µM,> 100 µM,> 100 µM,> 100 µM,> 100 µM,> 100 µM,> 100 µM,> 100 µM,> 100 µM,> 100 µM
CN(C)CCCNC(=O)CNC(=O)c1cc(NC(=O)c2cc(NC(=O)c3cc(NC(=O)CCNC(=O)c4cc(NC(=O)c5cc(NC(=O)c6nccn6C)cn5C)cn4C)cn3C)cn2C)cn1C,> 100 µM,> 100 µM,> 100 µM,> 100 µM,> 100 µM,> 100 µM,> 100 µM,> 100 µM,> 100 µM,> 100 µM
CC1(C)OC2CN(C(=O)OCc3ccccc3)C(CO)C2O1 (stereo not given),> 100 µM,> 100 µM,> 100 µM,> 100 µM,> 100 µM,> 100 µM,> 100 µM,> 100 µM,> 100 µM,> 100 µM
O=[N+]([O-])/C(C(Cl)=C(Cl)Cl)=C(/Sc1ccccc1)N1CCOCC1,6.27 µM,29.8 µM,16 µM,25.7 µM,38.4 µM,9.24 µM,26.5 µM,11.1 µM,26.2 µM,9.2 µM
O=C(O)c1cc2c(cc1S(=O)(=O)O)C1C(C3C2C2(Cl)C(Cl)=C(Cl)C3(Cl)C2(Cl)Cl)C2(Cl)C(Cl)=C(Cl)C1(Cl)C2(Cl)Cl (stereo not given),85.2 µM,73.3 µM,> 100 µM,> 100 µM,> 100 µM,> 100 µM,49 µM,> 100 µM,48 µM,> 100 µM
CCOC(=O)NNC1(SC)NC(=O)c2c(cc(Cl)oc2=O)O1 (stereo not given),4.63 µM,13.1 µM,29.9 µM,20.4 µM,25.7 µM,11.7 µM,43.8 µM,14.5 µM,5.26 µM,17.6 µM
C=C(Br)C(Cl)(CBr)CCC(Br)C(C)(C)Cl (stereo not given),> 10 µM,> 10 µM,> 10 µM,> 10 µM,> 10 µM,> 10 µM,> 10 µM,> 10 µM,> 10 µM,> 10 µM
C=CC1(CBr)CCC(C(C)(C)Br)O1 (stereo not given),28.6 µM,19.9 µM,15.5 µM,32.1 µM,30.7 µM,27.7 µM,46.7 µM,22.7 µM,14.4 µM,26.6 µM
CC1(C)SC2C(NC(=O)Cc3ccccc3)C(=O)N2C1C(=O)O (stereo not given),> 100 µM,> 100 µM,> 100 µM,> 100 µM,> 100 µM,> 100 µM,> 100 µM,> 100 µM,> 100 µM,> 100 µM
COc1ncc(C#CC(=O)c2ccccc2OC)c(OC)n1,4.47 µM,7.56 µM,22.9 µM,10.3 µM,4.78 µM,5.05 µM,3.35 µM,3.98 µM,3.84 µM,8.44 µM
OCC1CCCCN1Cc1nc2ccc(Cl)cc2[nH]1 (stereo not given),> 100 µM,> 100 µM,> 100 µM,> 100 µM,> 100 µM,> 100 µM,> 100 µM,> 100 µM,> 100 µM,> 100 µM
COc1cc(/C=C2\CCc3cc(OC)c(OC)cc3C2=O)cc(OC)c1,> 100 µM,> 86.7 µM,62.1 µM,> 100 µM,10.9 µM,> 100 µM,> 100 µM,> 100 µM,> 100 µM,> 100 µM
CC1(C)OC[C@@]2([C@@H]3CC[C@@H](C3)C2(C)C)N1O,> 100 µM,> 100 µM,> 100 µM,> 100 µM,> 100 µM,> 100 µM,> 100 µM,> 100 µM,> 100 µM,> 100 µM
